According to patent US20070081951A1, “Prevention of dental plaque and dental calculus in animals” (priority 2005, published 2007):

How the values were obtained:
[1] = tested on: Streptococcus parasanguis (FW213); experiment: Zones of inhibition of growth on TSA agar plates, Streptococcus parasanguis (FW213); assay type: cell-based; details: for Zones of Inhibition of Growth, FW213: 20 ul specimen on TSA agar lawn, 37° C., 5% CO2, read at 24 and 48 h, CPC 0.05%, CHX 0.1%, acids 1% (wt. %)
Procedure: (§1) This study was conducted to determine whether anti-calculus agents inhibit the antimicrobial activity of cetyl pyridium chloride […] and chlorhexidine (CHX).
(§2) Experimental Design: TSA agar plates were individually swabbed with fresh 24 h broth cultures of Streptococcus mutans (TH16), Streptococcus parasanguis (FW213) and Actinomyces viscosus (AV) to provide a confluent lawn of bacterial growth. Five minutes after swabbing the plates (to allow the inoculum to absorb into the agar), 20 ul of each test specimen (see below) was placed onto designated places on the plates and allowed to absorb into the agar. The plates were incubated agar-side up at 37° C. in 5% CO2 for 48 h. Plates were examined at 24 and 48 h for zones of inhibition of growth for each bacterial species. The diameter of each zone was measured in mm. The zones of inhibition of each mixture (anti-calculus and antimicrobial agents) were compared to the zones of each agent separately. If the zones of the mixtures were the same size (or larger) than the inhibition zones from the antimicrobial agent alone then there was no inhibition of antimicrobial activity by the anti-calculus agent.
(§3) Test Specimens: There were 12 different samples/test specimens used in this experiment. Test groups included (concentrations are wt. %): cetyl pyridium chloride ([…]; commercially available from ICN Biomedicals, Inc., Aurora, Ohio) at a concentration of 0.05%; CPC at 0.05%+1.0% malic acid; CPC at 0.05%+1% fumaric acid; CPC at 0.05%+1% citric acid; chlorhexidine (CHX; commercially available ICN Biomedicals, Inc., Aurora, Ohio) at 0.1% alone; CHX at 0.1%+1% malic acid; CHX at 0.1%+1% fumaric acid; CHX at 0.1%+1% citric acid; 1% malic acid; 1% fumaric acid; 1% citric acid.
(§4) Results: See Table 1 (below). This study was designed to determine whether or not the polycarboxylic acids (anti-calculus agents) altered the activity of the anti-microbial agents. Decreases in the width of the zone of inhibition when the polycarboxylic acid is combined with the antimicrobial agent, as compared to the width of the zone of inhibition for the antimicrobial agent alone, is an indication that the polycarboxylic acid reduced the activity of the anti-microbial agent. Differences in the width of the zone of inhibition of ±3 mm are not considered to be significant.

[2] = tested on: Actinomyces viscosus (AV); experiment: Zones of inhibition of growth on TSA agar plates, Actinomyces viscosus (AV); assay type: cell-based; details: for Zones of Inhibition of Growth, AV: 20 ul specimen on TSA agar lawn, 37° C., 5% CO2, read at 24 and 48 h, CPC 0.05%, CHX 0.1%, acids 1% (wt. %)
Procedure: as §1, §2, §3, §4

[3] = tested on: Streptococcus mutans (TH16); experiment: Zones of inhibition of growth on TSA agar plates, Streptococcus mutans (TH16); assay type: cell-based; details: for Zones of Inhibition of Growth, TH16: 20 ul specimen on TSA agar lawn, 37° C., 5% CO2, read at 24 and 48 h, CPC 0.05%, CHX 0.1%, acids 1% (wt. %)
Procedure: as §1, §2, §3, §4

[4] = tested on: dental plaque in cats; experiment: Example 3: antimicrobial rinses in cats, 4-week dental plaque formation; assay type: in vivo; details: 4-week test periods, clinical plaque grading
Procedure: The presence of dental plaque was assessed clinically by disclosing the plaque with an aqueous solution containing 1.5% D&C Red #28, removing the excess disclosant by spraying with tap water, and then determining the amount of plaque present on the occlusal and gingival halves of the buccal surface of each tooth using the following numerical scale: 0=no observable plaque; 1=scattered plaque covering <24% of the tooth surface; 2=plaque covering between 25 and 49% of the tooth surface; 3=plaque covering between 50 and 74% of the tooth surface; and 4=plaque covering 75% or more of the tooth surface. The plaque intensity or thickness was assessed for each area using the following subjective numerical scale: 1=light or thin layer of plaque; 2=moderate thickness of about 1 mm; and 3=heavy or thick layer of plaque in excess of 1 mm in thickness. The results of the assessments were summarized for each animal by multiplying the plaque coverage score by the intensity factor for each occlusal and gingival segment of each tooth, summing the scores for the occlusal and gingival segments to obtain an individual tooth score, and summing the individual tooth scores and dividing by the number of teeth graded.
The treatments were applied as rinses with 4-week test periods using the same procedures as described for Example 2. The amount of plaque present at the conclusion of the test period was graded clinically using the numerical scale described previously.

[5] = zone of mixture vs antimicrobial agent alone, differences of ±3 mm not significant

Row | SMILES | Zones of Inhibition of Growth, FW213 [1] [mm] | Zones of Inhibition of Growth, AV [2] [mm] | Zones of Inhibition of Growth, TH16 [3] | Change of antimicrobial activity on combining with the polycarboxylic acids, S. parasanguis [1, 5] | Change of antimicrobial activity on combining with the polycarboxylic acids, A. viscosus [2, 5] | Change of antimicrobial activity on combining with the polycarboxylic acids, S. mutans [3, 5] | Reduction in the formation of dental plaque [4]
1 | O=C(O)CC(O)(CC(=O)O)C(=O)O [C (citric acid), citric acid] | 0 | 0 | Weak* (Weak = very slight activity; <1 mm) |  |  |  | 
2 | [H]/N=C(\N/C(=N/[H])NCCCCCCNC(=N)NC(=N)Nc1ccc(Cl)cc1)Nc1ccc(Cl)cc1 [CHX alone, chlorhexidine gluconate] | 13 | 20 | 6 mm | not altered | decreased by the presence of fumaric acid | not altered | 
3 | O=C(O)/C=C/C(=O)O [F (fumaric acid), fumaric acid] | 0 | 0 | Weak* (Weak = very slight activity; <1 mm) |  |  |  | 
4 | O=C(O)CC(O)C(=O)O (stereo not drawn) [M (malic acid), malic acid] | 0 | 0 | Weak* (Weak = very slight activity; <1 mm) |  |  |  | 
5 | Oc1cc(Cl)ccc1Oc1ccc(Cl)cc1Cl [Triclosan] |  |  |  |  |  |  | 14.8%
6 | CCCCCCCC(=O)O [caprylic acid] |  |  |  |  |  |  | 10.2%
7 | [F][Sn][F] [stannous fluoride] |  |  |  |  |  |  | no reduction
